From ChEMBL document CHEMBL1201862, “PubChem BioAssay data set” (2004)
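Compound exposure: 48 hours, 5 concentrations, 96-well plates. Abbreviation: GI50, concentration required for 50% inhibition of growth.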 The source made the active and inactive calls. No stated cut-off is given here; in the data, active = GI50 up to about 1.1 µM and inactive = higher.

Columns and labels:
Experiment in all cases: growth of human tumour cells (NCI), 48 h
A498 = tested on: A498
ACHN = tested on: ACHN
CCRF-CEM = tested on: CCRF-CEM
HCT-116 = tested on: HCT-116
HT-29 = tested on: HT-29
Hs-578T = tested on: Hs-578T
MDA-MB-435 = tested on: MDA-MB-435
NCI-H226 = tested on: NCI-H226
NCI-H460 = tested on: NCI-H460
PC-3 = tested on: PC-3
SF-268 = tested on: SF-268
SK-MEL-5 = tested on: SK-MEL-5
SN12C = tested on: SN12C
T47D = tested on: T47D
UACC-257 = tested on: UACC-257
UACC-62 = tested on: UACC-62
MCF7 = tested on: MCF7
OVCAR-5 = tested on: OVCAR-5
RPMI-8226 = tested on: RPMI-8226
SK-OV-3 = tested on: SK-OV-3

| Compound | GI50 (A498) | GI50 (ACHN) | GI50 (CCRF-CEM) | GI50 (HCT-116) | GI50 (HT-29) | GI50 (Hs-578T) | GI50 (MDA-MB-435) | GI50 (NCI-H226) | GI50 (NCI-H460) | GI50 (PC-3) | GI50 (SF-268) | GI50 (SK-MEL-5) | GI50 (SN12C) | GI50 (T47D) | GI50 (UACC-257) | GI50 (UACC-62) | GI50 (MCF7) | GI50 (OVCAR-5) | GI50 (RPMI-8226) | GI50 (SK-OV-3) |
| --- | --- | --- | --- | --- | --- | --- | --- | --- | --- | --- | --- | --- | --- | --- | --- | --- | --- | --- | --- | --- |
| O=C(NCCCN(CCCCN(CCCNC(=O)c1cc(S(=O)(=O)O)cc(O)c1O)C(=O)c1cc(S(=O)(=O)O)cc(O)c1O)C(=O)c1cc(S(=O)(=O)O)cc(O)c1O)c1cc(S(=O)(=O)O)cc(O)c1O | > 100 µM (inactive) | > 100 µM (inactive) | > 100 µM (inactive) | > 100 µM (inactive) | > 100 µM (inactive) | > 100 µM (inactive) | > 100 µM (inactive) | > 100 µM (inactive) | > 100 µM (inactive) | > 100 µM (inactive) | > 100 µM (inactive) | > 100 µM (inactive) | > 100 µM (inactive) | > 100 µM (inactive) | > 100 µM (inactive) | > 100 µM (inactive) |  |  |  |  |
| CCOC(=O)CCC(NC(=O)c1ccc(CNc2nc3ccccc3nc2C(=O)OCC)cc1)C(=O)OCC (stereo not drawn) | > 100 µM (inactive) | > 100 µM (inactive) | > 100 µM (inactive) | > 100 µM (inactive) | > 100 µM (inactive) | > 100 µM (inactive) | 3.01 µM (inactive) | > 100 µM (inactive) |  | > 100 µM (inactive) | > 100 µM (inactive) | > 100 µM (inactive) | > 100 µM (inactive) |  |  | > 100 µM (inactive) | > 100 µM (inactive) | > 100 µM (inactive) | > 100 µM (inactive) | > 100 µM (inactive) |
| Cc1ccc(S(=O)(=O)NC(=O)NC(Cc2ccc(O)c(O)c2)C(=O)O)cc1 (stereo not drawn) | > 100 µM (inactive) | > 100 µM (inactive) | 25.1 µM (inactive) | > 100 µM (inactive) | > 100 µM (inactive) |  | > 100 µM (inactive) | > 100 µM (inactive) | > 100 µM (inactive) | > 100 µM (inactive) | 0.745 µM (active) | > 100 µM (inactive) | > 100 µM (inactive) | > 100 µM (inactive) | > 100 µM (inactive) | > 100 µM (inactive) | > 100 µM (inactive) | > 100 µM (inactive) | 55.7 µM (inactive) |  |
| COC(=O)/C=C/CCC#Cc1ccccc1C#CCC/C=C/C(=O)OC | 38.5 µM (inactive) | 23.7 µM (inactive) | 4.48 µM (inactive) | 3.48 µM (inactive) | 3.49 µM (inactive) |  | 6 µM (inactive) | 13.1 µM (inactive) | 12.4 µM (inactive) | 14.3 µM (inactive) | 9.82 µM (inactive) |  | 7.38 µM (inactive) | 4.07 µM (inactive) | 23.7 µM (inactive) | 12.6 µM (inactive) | 6.41 µM (inactive) | 23.5 µM (inactive) |  | 21.7 µM (inactive) |
| O=C(c1ccccc1)c1cc(-c2ccccc2)c(-c2ccccc2)[nH]c(=O)c1=O | 77.4 µM (inactive) | 63.5 µM (inactive) | 15.2 µM (inactive) | 35.2 µM (inactive) | 36.6 µM (inactive) | 40.9 µM (inactive) | 30.5 µM (inactive) | 43.4 µM (inactive) | 34 µM (inactive) | 36.6 µM (inactive) | 50.5 µM (inactive) | 31.6 µM (inactive) | 35.2 µM (inactive) |  | 41.5 µM (inactive) | 25.1 µM (inactive) | 31.5 µM (inactive) | 54.2 µM (inactive) | 23.9 µM (inactive) | > 100 µM (inactive) |
| C1=C(c2ccccc2)NC2=N[C@H]3CCCC[C@@H]3N2C1c1ccccc1 (stereo partly drawn) | 16.4 µM (inactive) | 13.7 µM (inactive) | 6.67 µM (inactive) | 7.67 µM (inactive) | 3.51 µM (inactive) | 17.2 µM (inactive) | 13.6 µM (inactive) | 13.4 µM (inactive) | 11 µM (inactive) | 11.4 µM (inactive) | 21.5 µM (inactive) | 14.6 µM (inactive) |  | 16.4 µM (inactive) | 14.6 µM (inactive) | 15 µM (inactive) |  | 13.5 µM (inactive) | 4.82 µM (inactive) | 15.8 µM (inactive) |
| O=c1[nH]c(Nc2nc3ccccc3[nH]2)nc(O)c1-c1ccccc1 | > 100 µM (inactive) | > 100 µM (inactive) | > 100 µM (inactive) | > 100 µM (inactive) | > 100 µM (inactive) | 72.3 µM (inactive) | > 100 µM (inactive) | > 100 µM (inactive) | > 100 µM (inactive) | > 100 µM (inactive) | > 100 µM (inactive) | > 100 µM (inactive) | > 100 µM (inactive) |  | > 100 µM (inactive) | > 100 µM (inactive) | > 100 µM (inactive) | > 100 µM (inactive) |  | > 100 µM (inactive) |
| Cc1cc(=O)c2cc(/N=C/c3ccc([N+](=O)[O-])o3)ccc2o1 | > 100 µM (inactive) | 91.6 µM (inactive) | 41.1 µM (inactive) | 32.5 µM (inactive) | > 100 µM (inactive) | > 100 µM (inactive) | 44.9 µM (inactive) | > 100 µM (inactive) | > 100 µM (inactive) |  | 88.7 µM (inactive) | > 100 µM (inactive) | > 100 µM (inactive) | > 100 µM (inactive) | 28.1 µM (inactive) | 56.1 µM (inactive) | 24.3 µM (inactive) | > 100 µM (inactive) | 35.5 µM (inactive) | > 100 µM (inactive) |
| O=C(c1cccnc1)N1N=C(c2ccccc2)CC1(O)c1cc(F)c(Cl)cc1Cl (stereo not drawn) |  | 23.2 µM (inactive) | 24.6 µM (inactive) | 13.8 µM (inactive) | 19.6 µM (inactive) | 27 µM (inactive) | 26.9 µM (inactive) | 15.6 µM (inactive) | 18.6 µM (inactive) | 20.5 µM (inactive) | 30.5 µM (inactive) | 13.9 µM (inactive) | 17.2 µM (inactive) | 12.3 µM (inactive) | 18.6 µM (inactive) |  |  | 32.8 µM (inactive) | 18.2 µM (inactive) | 23.7 µM (inactive) |
| Cc1cc2c(cc1Cl)SC(NNC(=O)c1ccncc1)=NS2(=O)=O | > 10 µM (inactive) | > 10 µM (inactive) | > 10 µM (inactive) | > 10 µM (inactive) | > 10 µM (inactive) | > 10 µM (inactive) | > 10 µM (inactive) | > 10 µM (inactive) | > 10 µM (inactive) | > 10 µM (inactive) | > 10 µM (inactive) | > 10 µM (inactive) | > 10 µM (inactive) | > 10 µM (inactive) | > 10 µM (inactive) | > 10 µM (inactive) |  | > 10 µM (inactive) | > 10 µM (inactive) | > 10 µM (inactive) |
| CCOC(=O)c1cn2c(n1)sc1cc(OC)ccc12 | 46.3 µM (inactive) | 8.75 µM (inactive) |  | 5.42 µM (inactive) | 2.82 µM (inactive) | 21 µM (inactive) | 1.18 µM (inactive) | 25.1 µM (inactive) | 29.8 µM (inactive) | 15.2 µM (inactive) | 27.4 µM (inactive) | 2.72 µM (inactive) | 7.41 µM (inactive) |  | 80.9 µM (inactive) | 8.63 µM (inactive) | 5.13 µM (inactive) | 14.7 µM (inactive) | 4.08 µM (inactive) | 30.1 µM (inactive) |
| CN(CCCNC(=O)c1cn(C)c2c1ccc1cc(Cl)ccc12)CCCNC(=O)c1cn(C)c2c1ccc1cc(Cl)ccc12 | 5.86 µM (inactive) | 1.71 µM (inactive) | 1.23 µM (inactive) | 1.88 µM (inactive) | 2.05 µM (inactive) | 1.83 µM (inactive) | 1.71 µM (inactive) | 20.6 µM (inactive) | 1.56 µM (inactive) | 1.78 µM (inactive) | 1.72 µM (inactive) | 4.99 µM (inactive) | 1.87 µM (inactive) | 1.8 µM (inactive) | 2.19 µM (inactive) | 1.84 µM (inactive) |  | 3.09 µM (inactive) |  | 1.82 µM (inactive) |
| CCCCC(=O)Nc1ccc2c(C)cc(-c3ccc(-c4cc(-c5ccc(C)cc5)cc(-c5ccc(-c6cc(C)c7ccc(NC(=O)CCCC)nc7n6)cc5)n4)cc3)nc2n1 | > 100 µM (inactive) | > 100 µM (inactive) | > 100 µM (inactive) | > 100 µM (inactive) |  |  | > 100 µM (inactive) |  | > 100 µM (inactive) | > 100 µM (inactive) | > 100 µM (inactive) | > 100 µM (inactive) | > 100 µM (inactive) | > 100 µM (inactive) | > 100 µM (inactive) | > 100 µM (inactive) | > 100 µM (inactive) | > 100 µM (inactive) | > 100 µM (inactive) | > 100 µM (inactive) |
| CCCCCCCCCCC(O)[C@H]1CCC(C2CC[C@H]([C@H](O)CCCCCCCCCCC(O)CC3=CC(C)OC3=O)O2)O1 (stereo partly drawn) | 2.17 µM (inactive) | 1.24 µM (inactive) | 1.94 µM (inactive) | 1.94 µM (inactive) | 1.55 µM (inactive) | 1.7 µM (inactive) |  | 1.11 µM (active) | 1.04 µM (active) | 1.7 µM (inactive) | 1.58 µM (inactive) | 0.565 µM (active) | 2.25 µM (inactive) | 2.23 µM (inactive) | 1.27 µM (inactive) | 1.45 µM (inactive) | 1.21 µM (inactive) | 3.08 µM (inactive) | 2.21 µM (inactive) | 3.18 µM (inactive) |
| O=c1[nH]c(=O)n(COCCO)cc1-c1ccccc1 |  | > 100 µM (inactive) | > 100 µM (inactive) | > 100 µM (inactive) | > 100 µM (inactive) | > 100 µM (inactive) | > 100 µM (inactive) |  | > 100 µM (inactive) | > 100 µM (inactive) | > 100 µM (inactive) | > 100 µM (inactive) | > 100 µM (inactive) | > 100 µM (inactive) | > 100 µM (inactive) | > 100 µM (inactive) | > 100 µM (inactive) | > 100 µM (inactive) | > 100 µM (inactive) | > 100 µM (inactive) |
